In US20230278972A1, “SUBSTITUTED HALOALKYL SULFONANILIDE HERBICIDES” (FMC Corporation, priority 2020, published 2023):
Read-outs that look alike come from different tables or passages of the source.

Experiments:
[1] = system: ragweed (common ragweed, Ambrosia artemisiifolia); test: Test A postemergence, ragweed; assay type: in vivo; conditions: Ambrosia artemisiifolia, post-emergence, 240 h, Postemergence, 0 to 100 scale (0 no effect, 100 complete control); for pest or weed control at 125 g/ha: 125 g ai/ha; for pest or weed control at 500 g/ha: 500 g ai/ha
In short: (§1)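 Preemergence: seeded pots of loam plus sand received a directed soil spray. Postemergence: seedlings at one to two leaves, 2 to 10 cm high, were oversprayed. Each compound was formulated in a non-phytotoxic solvent mix that included a surfactant.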

[2] = system: ragweed (common ragweed, Ambrosia artemisiifolia); test: Test A preemergence, ragweed; assay type: in vivo; conditions: Ambrosia artemisiifolia, pre-emergence, 240 h, Preemergence; for pest or weed control at 125 g/ha: 125 g ai/ha; for pest or weed control at 500 g/ha: 500 g ai/ha
In short: as §1

[3] = system: ducksalad (Heteranthera limosa); test: Test B flooded paddy test, ducksalad; conditions: 336 h, read-out: Plant response rating, Ducksalad
[4] = system: Ryegrass, Italian (Italian ryegrass, Lolium multiflorum); test: Test A preemergence, Ryegrass, Italian; assay type: in vivo; conditions: Lolium multiflorum, pre-emergence, 240 h, Preemergence; for pest or weed control at 125 g/ha: 125 g ai/ha; for pest or weed control at 500 g/ha: 500 g ai/ha
In short: as §1

kochia (Bassia scoparia) = test: Test A preemergence, kochia; assay type: in vivo; conditions: Bassia scoparia, pre-emergence, 240 h, Preemergence; for pest or weed control at 125 g/ha: 125 g ai/ha; for pest or weed control at 500 g/ha: 500 g ai/ha
In short: as §1

[5] = visual injury approx. 10 days, read-out: Plant response rating, Ragweed
[6] = visual injury vs untreated controls after approx. 10 days, read-out: Ragweed plant response rating
[7] = visual injury on 0 to 100 scale (0 no effect, 100 complete control), approximately 10 days, read-out: Ragweed plant response rating
[8] = 0 to 100 scale (0 no effect, 100 complete control), read-out: Plant response rating, Ragweed
[9] = visual injury on 0 to 100 scale (0 no effect, 100 complete control), approximately 10 days, read-out: Ryegrass, Italian plant response rating
[10] = 0 to 100 scale (0 no effect, 100 complete control), read-out: Plant response rating, Ryegrass, Italian
[11] = visual injury on 0 to 100 scale (0 no effect, 100 complete control), approximately 10 days, read-out: Kochia plant response rating
[12] = 0 to 100 scale (0 no effect, 100 complete control), read-out: Plant response rating, Kochia
[13] = read-out: Plant response rating, Ragweed
[14] = visual injury, 0 to 100 scale (0 no effect, 100 complete control), approx. 10 days, read-out: Plant response rating, Ragweed
[15] = visual injury, 0 to 100 scale (0 no effect, 100 complete control), approx. 10 days, read-out: Plant response rating, Ryegrass, Italian
[16] = visual injury, 0 to 100 scale (0 no effect, 100 complete control), approx. 10 days, read-out: Plant response rating, Kochia
[17] = visual injury, approx. 10 days, read-out: Plant response rating, Ragweed

| SMILES | pest or weed control at 125 g/ha [1, 5] [%] | pest or weed control at 500 g/ha [1, 6] [%] | pest or weed control at 125 g/ha [2, 7] [%] | pest or weed control at 500 g/ha [2, 8] [%] | pest or weed control at 250 g/ha [3] [%] | pest or weed control at 125 g/ha [4, 9] [%] | pest or weed control at 500 g/ha [4, 10] [%] | pest or weed control at 125 g/ha (kochia (Bassia scoparia); [11]) [%] | pest or weed control at 500 g/ha (kochia (Bassia scoparia); [12]) [%] | pest or weed control at 125 g/ha [1, 13] [%] | pest or weed control at 125 g/ha [2, 14] [%] | pest or weed control at 125 g/ha [4, 15] [%] | pest or weed control at 125 g/ha (kochia (Bassia scoparia); [16]) [%] | pest or weed control at 500 g/ha [1, 17] [%] | pest or weed control at 500 g/ha [2, 7] [%] | pest or weed control at 500 g/ha [4, 9] [%] | pest or weed control at 500 g/ha (kochia (Bassia scoparia); [11]) [%] | pest or weed control at 500 g/ha [1, 5] [%] |
| --- | --- | --- | --- | --- | --- | --- | --- | --- | --- | --- | --- | --- | --- | --- | --- | --- | --- | --- |
| Cc1cc(C)c(C2=NOC3COCCC23)cc1NS(=O)(=O)C(F)(F)F (stereo not drawn) [Compound 121, N-[2,4-Dimethyl-5-(3a,4,7,7a-tetrahydro-5H-pyrano[4,3-d]isoxazol-3-yl)phenyl]-1,1,1-trifluoromethanesulfonamide] | 90 | 90 | 80 | 100 | 75 | 100 | 100 | 90 | 90 | – | – | – | – | – | – | – | – | – |
| Cc1cc(C)c(N(COC(=O)C(C)(C)C)S(=O)(=O)C(F)(F)F)cc1C1=NO[C@@H]2CCC[C@H]12 [Compound 100, [[2,4-Dimethyl-5-[(3aR,6aR)-3a,5,6,6a-tetrahydro-4H-cyclopent[d]isoxazol-3-yl]phenyl][(trifluoromethyl)sulfonyl]amino]methyl 2,2-dimethylpropanoate] | 40 | 80 | 20 | 80 | 70 | 40 | 70 | 60 | 80 | – | – | – | – | – | – | – | – | – |
| Cc1cc(C)c(C2=NOC3(CCCCC3)C2)cc1NS(=O)(=O)C(F)(F)F [Compound 197, N-[2,4-Dimethyl-5-(1-oxa-2-azaspiro[4.5]dec-2-en-3-yl)phenyl]-1,1,1-trifluoromethanesulfonamide] | – | 80 | – | 90 | 95 | – | 100 | – | 90 | 80 | 80 | 100 | 90 | – | – | – | – | – |
| Cc1cc(C)c(C2=NO[C@@H]3CCC[C@H]23)cc1NS(=O)(=O)C(F)(F)F [Compound 103, N-[2,4-Dimethyl-5-[(3aR,6aR)-3a,5,6,6a-tetrahydro-4H-cyclopent[d]isoxazol-3-yl]phenyl]-1,1,1-trifluoromethanesulfonamide] | 60 | 70 | 70 | 90 | 80 | 90 | 90 | 80 | 90 | – | – | – | – | – | – | – | – | – |
| Cc1c(NS(=O)(=O)C(F)(F)F)cc(C(=O)N2CCOCC2)c(C)c1F [Compound 190, 1,1,1-Trifluoro-N-[3-fluoro-2,4-dimethyl-5-(4-morpholinylcarbonyl)phenyl]methanesulfonamide] | – | 90 | – | 90 | 75 | – | 100 | – | 100 | 80 | 70 | 70 | 90 | – | – | – | – | – |
| Cc1cc(Cl)c(NS(=O)(=O)C(F)(F)F)cc1C(=O)N1CCCCC1 [Compound 18, N-[2-Chloro-4-methyl-5-(1-piperidinylcarbonyl)phenyl]-1,1,1-trifluoromethanesulfonamide] | 0 | – | 0 | 30 | 0 | 90 | 90 | 10 | 60 | – | – | – | – | 80 | – | – | – | – |
| Cc1cc(C)c(C2=NOC3CCOCC23)cc1NS(=O)(=O)C(F)(F)F (stereo not drawn) [Compound 120, N-[2,4-Dimethyl-5-(3a,6,7,7a-tetrahydro-4H-pyrano[3,4-d]isoxazol-3-yl)phenyl]-1,1,1-trifluoromethanesulfonamide] | 80 | 90 | 90 | 100 | 55 | 100 | 100 | 90 | 100 | – | – | – | – | – | – | – | – | – |
| Cc1cc(Cl)c(NS(=O)(=O)C(F)(F)F)cc1C(=O)N1CCC(F)(F)CC1 [Compound 229, N-[2-Chloro-5-[(4,4-difluoro-1-piperidinyl)carbonyl]-4-methylphenyl]-1,1,1-trifluoromethanesulfonamide] | – | 90 | – | – | 75 | – | – | – | – | 90 | 90 | 60 | 80 | – | 100 | 90 | 100 | – |
| Cc1c(NS(=O)(=O)C(F)(F)F)cc(C(=O)N(C)C)c(C)c1F [Compound 128, 3-Fluoro-N,N,2,4-tetramethyl-5-[[(trifluoromethyl)sulfonyl]amino]benzamide] | 80 | 90 | 90 | 90 | 50 | 100 | 100 | 80 | 80 | – | – | – | – | – | – | – | – | – |
| CCc1cc(-c2cc(NS(=O)(=O)C(F)(F)F)c(C)cc2C)c(=O)n(C)n1 [Compound 34, N-[5-(6-Ethyl-2,3-dihydro-2-methyl-3-oxo-4-pyridazinyl)-2,4-dimethylphenyl]-1,1,1-trifluoromethanesulfonamide] | 0 | – | 0 | 20 | 0 | 30 | 70 | 30 | 70 | – | – | – | – | 0 | – | – | – | – |
| Cc1cc(C)c(N(COC(=O)C(C)(C)C)S(=O)(=O)C(F)(F)F)cc1C1=NOC2(CCCCC2)C1 [Compound 159, [[2,4-Dimethyl-5-(1-oxa-2-azaspiro[4.5]dec-2-en-3-yl)phenyl][(trifluoromethyl)sulfonyl]amino]methyl 2,2-dimethylpropanoate] | – | 90 | 80 | 80 | 35 | 0 | 30 | 40 | 70 | 60 | – | – | – | – | – | – | – | – |
| Cc1cc(C)c(C2=NOC3(CCCC3)C2)cc1NS(=O)(=O)C(F)(F)F [Compound 207, N-[2,4-Dimethyl-5-(1-oxa-2-azaspiro[4.4]non-2-en-3-yl)phenyl]-1,1,1-trifluoromethanesulfonamide] | – | 70 | – | 70 | 95 | – | 100 | – | 90 | 20 | 20 | 90 | 90 | – | – | – | – | – |
| Cc1cc(C)c(C(=O)N2CCC(F)(F)CC2)cc1NS(=O)(=O)C(F)(F)F [Compound 241, N-[5-[(4,4-Difluoro-1-piperidinyl)carbonyl]-2,4-dimethylphenyl]-1,1,1-trifluoromethanesulfonamide] | – | – | – | – | 85 | – | – | – | – | 40 | 70 | 70 | 70 | – | 90 | 100 | 100 | 80 |
| Cc1cc(C)c(N(COC(=O)C(C)(C)C)S(=O)(=O)C(F)(F)F)cc1C1=NOC2(CCCC2)C1 [Compound 140, [[2,4-Dimethyl-5-(1-oxa-2-azaspiro[4.4]non-2-en-3-yl)phenyl][(trifluoromethyl)sulfonyl]amino]methyl 2,2-dimethylpropanoate] | – | 50 | 30 | 60 | 85 | 0 | 100 | 0 | 70 | 0 | – | – | – | – | – | – | – | – |
